The term IC50 denotes the concentration that inhibits the measured activity by half.

This is an account of results in patent publication US9994546B2, “Cyclopropylamines as LSD1 inhibitors” (Incyte Corporation, priority 2014, dated 2018).

The target of the experiment is LSD-1 enzyme (Homo sapiens (Human), UniProt O60341). As to the kind of experiment: LANCE LSD1/KDM1A demethylase assay (LSD1 histone demethylase biochemical assay). As to conditions: 1 nM LSD-1 enzyme, 1 hour preincubation at 25° C., 0.4 μM biotin-labeled Histone H3 peptide substrate. As to the method:
LANCE LSD1/KDM1A demethylase assay—10 μL of 1 nM LSD-1 enzyme (ENZO BML-SE544-0050) in the assay buffer (50 mM Tris, pH 7.5, 0.01% Tween-20, 25 mM NaCl, 5 mM DTT) were preincubated for 1 hour at 25° C. with 0.8 μL compound/DMSO dotted in black 384 well polystyrene plates. […] After stopping the reactions plates were incubated for 30 minutes and read on a PHERAstar FS plate reader (BMG Labtech).
Background: In TR-FRET formats the signal depends on donor and acceptor labels being close together.

SMILES strings stand for the structures.

On to `N#CCC1(N2CCC(NC3CC3c3ccccc3)CC2)CCC1` (racemic) [Example 1, (1-{4-[(trans-2-Phenylcyclopropyl)amino]piperidin-1-yl}cyclobutyl)acetonitrile], for which the IC50 was ≤ 100 nM.
With `CN1CC(CC#N)(N2CCC(N[C@@H]3C[C@H]3c3ccccc3)CC2)C1` (relative stereo) [Example 2, (1-Methyl-3-{4-[(trans-2-phenylcyclopropyl)amino]piperidin-1-yl}azetidin-3-yl)acetonitrile] the figure was ≤ 100 nM; with `N#CCC1(N2CCC(N[C@@H]3C[C@H]3c3ccccc3)CC2)CNC1` (relative stereo) [Example 3, (3-{4-[(trans-2-Phenylcyclopropyl)amino]piperidin-1-yl}azetidin-3-yl)acetonitrile], ≤ 100 nM; with `N#CCC1(N2CCC(N[C@@H]3C[C@H]3c3ccccc3)CC2)CN(Cc2ccccc2)C1` (relative stereo) [Example 4, (1-Benzyl-3-{4-[(trans-2-phenylcyclopropyl)amino]piperidin-1-yl}azetidin-3-yl)acetonitrile], ≤ 100 nM.
Regarding `N#CCC1(N2CCC(N[C@@H]3C[C@H]3c3ccccc3)CC2)CN(CCC(=O)O)C1` (relative stereo) [Example 5, 3-(3-(Cyanomethyl)-3-{4-[(trans-2-phenylcyclopropyl)amino]piperidin-1-yl}azetidin-1-yl)propanoic acid], the IC50 is ≤ 100 nM.
Turning to `CC(=O)N1CC(CC#N)(N2CCC(N[C@@H]3C[C@H]3c3ccccc3)CC2)C1` (relative stereo) [Example 6, (1-Acetyl-3-{4-[(trans-2-phenylcyclopropyl)amino]piperidin-1-yl}azetidin-3-yl)acetonitrile], the IC50 was ≤ 100 nM.
In the case of `N#CCC1(N2CCC(N[C@@H]3C[C@H]3c3ccccc3)CC2)CN(C(=O)c2ccccc2)C1` (relative stereo) [Example 7, (1-Benzoyl-3-{4-[(trans-2-phenylcyclopropyl)amino]piperidin-1-yl}azetidin-3-yl)acetonitrile], the IC50 was ≤ 100 nM.
For the compound `COC(=O)N1CC(CC#N)(N2CCC(N[C@@H]3C[C@H]3c3ccccc3)CC2)C1` (relative stereo) [Example 8, Methyl 3-(cyanomethyl)-3-{4-[(trans-2-phenylcyclopropyl)amino]piperidin-1-yl}azetidine-1-carboxylate], the IC50 was ≤ 100 nM.
With `CS(=O)(=O)N1CC(CC#N)(N2CCC(N[C@@H]3C[C@H]3c3ccccc3)CC2)C1` (relative stereo) [Example 9, (1-(Methylsulfonyl)-3-{4-[(trans-2-phenylcyclopropyl)amino]piperidin-1-yl}azetidin-3-yl)acetonitrile] the figure was ≤ 100 nM; with `N#CCC1(N2CCC(N[C@@H]3C[C@H]3c3ccccc3)CC2)CN(c2ncccc2C#N)C1` (relative stereo) [Example 10, 2-(3-(Cyanomethyl)-3-{4-[(trans-2-phenylcyclopropyl)amino]piperidin-1-yl}azetidin-1-yl)nicotinonitrile], ≤ 100 nM.
Compound `N#CCC1(N2CCC(N[C@@H]3C[C@H]3c3ccccc3)CC2)CN(c2ccc(C(=O)O)cc2C#N)C1` (relative stereo) [Example 11, 3-Cyano-4-(3-(cyanomethyl)-3-{4-[(trans-2-phenylcyclopropyl)amino]piperidin-1-yl}azetidin-1-yl)benzoic acid] gave a concentration for half-maximal inhibition (IC50) of 100 to 500 nM.
The same measure for `N#CCC1(N2CCC(N[C@@H]3C[C@H]3c3ccccc3)CC2)CN(c2ccccc2C#N)C1` (relative stereo) [Example 12, 2-(3-(Cyanomethyl)-3-{4-[(trans-2-phenylcyclopropyl)amino]piperidin-1-yl}azetidin-1-yl)benzonitrile]: ≤ 100 nM; for `N#CCC1(N2CCC(N[C@@H]3C[C@H]3c3ccccc3)CC2)CN(c2ccc(C#N)cc2)C1` (relative stereo) [Example 13, 4-(3-(Cyanomethyl)-3-{4-[(trans-2-phenylcyclopropyl)amino]piperidin-1-yl}azetidin-1-yl)benzonitrile]: ≤ 100 nM.
Take `N#CCC1(N2CC(CN[C@@H]3C[C@H]3c3ccccc3)C2)CCC1` (relative stereo) [Example 14, [1-(3-{[(trans-2-Phenylcyclopropyl)amino]methyl}azetidin-1-yl)cyclobutyl]acetonitrile]: the IC50 is ≤ 100 nM.
For the compound `CCS(=O)(=O)N1CC(CC#N)(N2CC(CN[C@@H]3C[C@H]3c3ccccc3)C2)C1` (relative stereo) [Example 15, (1′-(Ethylsulfonyl)-3-{[(trans-2-phenylcyclopropyl)amino]methyl}-1,3′-biazetidin-3′-yl)acetonitrile], the IC50 was ≤ 100 nM.
The same measure for `N#CCC1(N2CC(CN[C@@H]3C[C@H]3c3ccccc3)C2)CCNCC1` (relative stereo) [Example 16, [4-(3-{[(trans-2-Phenylcyclopropyl)amino]methyl}azetidin-1-yl)piperidin-4-yl]acetonitrile]: ≤ 100 nM.
With `CN1CCC(CC#N)(N2CC(CN[C@@H]3C[C@H]3c3ccccc3)C2)CC1` (relative stereo) [Example 17, [1-Methyl-4-(3-{[(trans-2-phenylcyclopropyl)amino]methyl}azetidin-1-yl)piperidin-4-yl]acetonitrile] the figure was ≤ 100 nM.
Turning to `CC(=O)N1CCC(CC#N)(N2CC(CN[C@@H]3C[C@H]3c3ccccc3)C2)CC1` (relative stereo) [Example 18, [1-Acetyl-4-(3-{[(trans-2-phenylcyclopropyl)amino]methyl}azetidin-1-yl)piperidin-4-yl]acetonitrile], the IC50 was ≤ 100 nM.
The same measure for `N#CCC1(N2CC(CN[C@@H]3C[C@H]3c3ccccc3)C2)CCN(C(=O)c2ccc(F)cc2)CC1` (relative stereo) [Example 19, [1-(4-Fluorobenzoyl)-4-(3-{[(trans-2-phenylcyclopropyl)amino]methyl}azetidin-1-yl)piperidin-4-yl]acetonitrile]: ≤ 100 nM.
With `CS(=O)(=O)N1CCC(CC#N)(N2CC(CN[C@@H]3C[C@H]3c3ccccc3)C2)CC1` (relative stereo) [Example 20, [1-(Methylsulfonyl)-4-(3-{[(trans-2-phenylcyclopropyl)amino]methyl}azetidin-1-yl)piperidin-4-yl]acetonitrile] the figure was ≤ 100 nM; with `N#CCC1(N2CC(CN[C@@H]3C[C@H]3c3ccccc3)C2)CCN(S(=O)(=O)c2ccccc2)CC1` (relative stereo) [Example 21, [4-(3-{[(trans-2-Phenylcyclopropyl)amino]methyl}azetidin-1-yl)-1-(phenylsulfonyl)piperidin-4-yl]acetonitrile], ≤ 100 nM.
The same measure for `CCOC(=O)N1CCC(CC#N)(N2CC(CN[C@@H]3C[C@H]3c3ccccc3)C2)CC1` (relative stereo) [Example 22, Ethyl 4-(cyanomethyl)-4-(3-{[(trans-2-phenylcyclopropyl)amino]methyl}azetidin-1-yl)piperidine-1-carboxylate]: ≤ 100 nM; for `CN(C)C(=O)N1CCC(CC#N)(N2CC(CN[C@@H]3C[C@H]3c3ccccc3)C2)CC1` (relative stereo) [Example 23, 4-(Cyanomethyl)-N,N-dimethyl-4-(3-{[(trans-2-phenylcyclopropyl)amino]methyl}azetidin-1-yl)piperidine-1-carboxamide]: ≤ 100 nM.
